Measurements reported in ChEMBL document CHEMBL3132790 (Medchemcomm, 2013).
Values belong to the molecule of their own block, whether it stands above or below them.

How the values were obtained:
Histamine H4 receptor [1] = biological target: Histamine H4 receptor (Homo sapiens, UniProt Q9H3N8, L175V); assay: Displacement of [3H]histamine from human histamine H4 receptor L175'5.39V mutant transfected in HEK293T cells after 1.5 hrs by liquid scintillation counting analysis; assay type: cell-based, HEK-293T
Chain of Histamine H4 receptor (Homo sapiens, UniProt Q9H3N8, L175V) (Q9H3N8 whole entry L175V): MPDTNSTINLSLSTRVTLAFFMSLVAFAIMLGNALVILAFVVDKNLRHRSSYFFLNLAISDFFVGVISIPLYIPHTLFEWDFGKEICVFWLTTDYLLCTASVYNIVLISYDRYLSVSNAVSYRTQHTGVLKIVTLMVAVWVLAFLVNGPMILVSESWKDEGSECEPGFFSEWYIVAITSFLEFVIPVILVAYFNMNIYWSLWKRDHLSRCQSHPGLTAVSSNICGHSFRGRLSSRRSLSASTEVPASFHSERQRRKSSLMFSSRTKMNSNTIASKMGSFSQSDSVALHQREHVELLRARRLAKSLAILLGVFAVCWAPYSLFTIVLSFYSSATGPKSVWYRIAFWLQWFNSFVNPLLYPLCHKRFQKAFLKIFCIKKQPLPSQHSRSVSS

Histamine H4 receptor [2] = biological target: Histamine H4 receptor (Homo sapiens, UniProt Q9H3N8); assay: Displacement of [3H]histamine from wild type human histamine H4 receptor transfected in HEK293T cells after 1.5 hrs by liquid scintillation counting analysis; assay type: cell-based, HEK-293T
Histamine H4 receptor [3] = biological target: Histamine H4 receptor (Homo sapiens, UniProt Q9H3N8, E182Q); assay: Displacement of [3H]-JNJ 7777120 from human histamine H4 receptor E182'5.46Q mutant transfected in HEK293T cells after 1.5 hrs by liquid scintillation counting analysis
Chain of Histamine H4 receptor (Homo sapiens, UniProt Q9H3N8, E182Q) (Q9H3N8 whole entry E182Q): as the sequence (Q9H3N8 whole entry L175V) above, with V175L, E182Q counted along it

Compound: CN1CCN(c2cc(-c3ccc(Cl)cc3)nc(N)n2)CC1
- Ki (Histamine H4 receptor [1]): 63.1 nM
- Ki (Histamine H4 receptor [2]): 2 nM
- Ki (Histamine H4 receptor [3]): 200 nM

Compound: COc1ccc2[nH]c(C(=O)N3CCN(C)CC3)cc2c1
- Ki (Histamine H4 receptor [2]): 5010 nM

Compound: CN1CCN(c2cc(-c3ccc(N)cc3)nc(N)n2)CC1
- Ki (Histamine H4 receptor [2]): 5.01 nM

Continued, values first:

- Ki (Histamine H4 receptor [1]): 20 nM
- Ki (Histamine H4 receptor [3]): 63.1 nM
Compound: CN1CCN(c2cc(-c3ccccc3)nc(N)n2)CC1

- Ki (Histamine H4 receptor [2]): 7.94 nM
Compound: CN1CCN(c2cc(-c3ccc([N+](=O)[O-])cc3)nc(N)n2)CC1

- Ki (Histamine H4 receptor [2]): 15.8 nM
Compound: COc1ccc(-c2cc(N3CCN(C)CC3)nc(N)n2)cc1

- Ki (Histamine H4 receptor [2]): 100 nM
Compound: CN1CCN(C(=O)c2cc3cc([N+](=O)[O-])ccc3[nH]2)CC1
